Measurements published in PMC6249113 (ACS chemical neuroscience, 2018).

Assays:
GluN1/2A NMDARs = GluN1/2A NMDARs (Rattus norvegicus, UniProt P35439+Q00959); assay type: cell-based; conditions: 10 μM compound; 100 μM NMDA plus 10 μM glycine; voltage pulse to +60 mV
GluN1/2A receptors = GluN1/2A receptors (Rattus norvegicus, UniProt P35439+Q00959); assay type: cell-based; conditions: for δ, fraction of the total transmembrane voltage field felt by the blocker at its binding site: calculated from V0 by Equation 4; for V0, change in voltage that results in an e-fold change in the IC50: roughly twice the IC50 of each drug (3 μM 5, 5 μM 7, 2 μM 8, 1 μM 11), 9 voltages −105 to +55 mV, fit of Equation 3; for Hill coefficient (nH): tsA201 cells, GluN1/2A, 1 mM glutamate, −65 mV, fit of Equation 2
Chain of GluN1/2A receptors (Q00959 23-1464, other chains not shown): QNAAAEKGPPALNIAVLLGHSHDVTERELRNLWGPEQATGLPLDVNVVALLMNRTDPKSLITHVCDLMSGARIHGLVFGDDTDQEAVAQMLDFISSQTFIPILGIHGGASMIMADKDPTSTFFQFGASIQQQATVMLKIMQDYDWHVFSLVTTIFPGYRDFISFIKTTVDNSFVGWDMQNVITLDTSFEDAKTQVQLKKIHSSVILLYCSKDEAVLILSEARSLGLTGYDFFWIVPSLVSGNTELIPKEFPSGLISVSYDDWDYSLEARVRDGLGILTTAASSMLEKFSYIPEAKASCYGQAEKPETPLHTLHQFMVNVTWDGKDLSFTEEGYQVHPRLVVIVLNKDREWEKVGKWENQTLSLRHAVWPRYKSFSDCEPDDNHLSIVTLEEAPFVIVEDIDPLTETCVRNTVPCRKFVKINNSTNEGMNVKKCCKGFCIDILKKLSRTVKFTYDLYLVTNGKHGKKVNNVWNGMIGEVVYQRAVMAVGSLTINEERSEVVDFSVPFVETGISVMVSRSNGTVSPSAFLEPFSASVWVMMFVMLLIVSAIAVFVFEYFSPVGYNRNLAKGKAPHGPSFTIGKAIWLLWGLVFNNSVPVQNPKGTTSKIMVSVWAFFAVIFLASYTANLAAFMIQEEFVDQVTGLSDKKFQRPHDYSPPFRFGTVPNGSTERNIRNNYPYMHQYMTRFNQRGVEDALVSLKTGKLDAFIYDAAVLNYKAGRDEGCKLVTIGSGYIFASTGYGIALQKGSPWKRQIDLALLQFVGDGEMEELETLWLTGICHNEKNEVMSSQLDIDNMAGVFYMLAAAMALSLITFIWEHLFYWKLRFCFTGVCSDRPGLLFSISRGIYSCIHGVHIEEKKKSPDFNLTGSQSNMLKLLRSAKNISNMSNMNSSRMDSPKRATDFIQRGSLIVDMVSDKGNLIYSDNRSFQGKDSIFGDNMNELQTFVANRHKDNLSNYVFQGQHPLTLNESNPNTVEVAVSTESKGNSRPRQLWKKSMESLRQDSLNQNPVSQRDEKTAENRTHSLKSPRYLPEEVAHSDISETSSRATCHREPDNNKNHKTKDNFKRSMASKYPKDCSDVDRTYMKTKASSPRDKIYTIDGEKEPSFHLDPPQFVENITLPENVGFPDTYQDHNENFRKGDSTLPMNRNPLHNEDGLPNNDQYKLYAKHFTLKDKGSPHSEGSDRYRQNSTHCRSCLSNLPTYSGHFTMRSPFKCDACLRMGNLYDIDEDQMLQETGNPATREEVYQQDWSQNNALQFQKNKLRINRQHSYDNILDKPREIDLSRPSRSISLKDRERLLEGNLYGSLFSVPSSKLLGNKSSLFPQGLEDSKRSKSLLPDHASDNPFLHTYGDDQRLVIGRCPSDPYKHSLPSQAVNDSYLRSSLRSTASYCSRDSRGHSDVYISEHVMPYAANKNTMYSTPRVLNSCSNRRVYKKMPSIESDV

Chain of GluN1/2A NMDARs (Q00959 23-1464, other chains not shown): as above

Compound | percentage block at +60 mV (GluN1/2A NMDARs) | δ, fraction of the total transmembrane voltage field felt by the blocker at its binding site (GluN1/2A receptors) | V0, change in voltage that results in an e-fold change in the IC50 (GluN1/2A receptors) | Hill coefficient (nH) (GluN1/2A receptors) | IC50 (GluN1/2A receptors)
CC12CC3CC1(C)C1(C)CC3(N)CC21C.Cl [Compound 7, (3,4,8,9-Tetramethyltetracydo[4.4.0.0^3,9.0^4,8]dec-1-yl)amme hydrochloride] | 2.4 ± 5.1% | 0.99 ± 0.05 | 26.5 ± 1.8 mV | 0.98 ± 0.08 | –
CC12CC3CC(C)(C1)CC(N)(C3)C2 [Compound 5, memantine, reference compound] | 8.1 ± 4.0% | 0.91 ± 0.08 | – | 1.07 ± 0.27 | 1.84 ± 0.39 µM
CC12CC3CC1(C)C1(C)CC3(CN)CC21C.Cl [Compound 8, (3,4,8,9-Tetramethyltetracydo[4.4.0.0^3,9.0^4,8]dec-1-yl)methylamine hydrochloride] | 14.7 ± 4.5% | 0.87 ± 0.05 | 29.9 ± 1.9 mV | 1.01 ± 0.11 | –
